According to article PMC12040169 (PLOS Biology, 2025):

Assay: in vitro
Details: human, hela cells, % viability

| Compound | viability at 28.5 h, 10 µM [%] |
| --- | --- |
| O=C(c1ccco1)N1CCN(c2ncc(-c3ccc(N4CCOCC4)cc3)n3ccnc23)CC1 [CBK091225] | 92.6 |
| Clc1ccc(CNc2ncc(-c3ccc(N4CCOCC4)cc3)n3ccnc23)cc1Cl [CBK091229] | 84.3 |
| CC(=O)c1ccc(-c2cnc(Nc3ccc(N4CCOCC4)cc3)c3nccn23)s1 [CBK091231] | 95.3 |
| COc1ccc(-c2cnc(Nc3ccc(N4CCOCC4)cc3)c3nccn23)cn1 [CBK091238] | 92 |
| CCCC/C=C/c1cnc(Nc2ccc(N3CCOCC3)cc2)c2nccn12 [CBK091239] | 91.3 |
| COc1ccc(NC(=O)c2ccc(-c3cnc(Nc4ccc(N5CCOCC5)cc4)c4nccn34)cc2)cc1 [CBK091240] | 96.7 |
| CCCC/C=C/c1cnc(N2CCOCC2)c2nccn12 [CBK091256] | 102 |
| O=C(O)/C=C/c1cccc(-c2cnc(N3CCOCC3)c3nccn23)c1 [CBK091263] | 104 |
| OCc1ccccc1-c1cnc(N2CCOCC2)c2nccn12 [CBK091265] | 110 |
| c1cc(-c2cnc(N3CCOCC3)c3nccn23)c2cccnc2c1 [CBK091270] | 93.6 |
| COc1ccc(-c2cnc(N3CCOCC3)c3nccn23)cc1 [CBK091285] | 87.2 |
| c1cn2c(-c3ccoc3)cnc(N3CCOCC3)c2n1 [CBK091292] | 88.7 |
| CC(=O)NCCCCCC(=O)N1CCN(c2ccc(C(F)(F)F)cc2)CC1 [CBK091312] | 92.8 |
| COc1ccccc1C1OC(=O)CC1C(=O)N1CCN(c2ccc(C(F)(F)F)cc2)CC1 (stereo not shown) [CBK091313] | 111 |
| Cc1ccc(S(=O)(=O)NCC(=O)N2CCN(c3ccc(Cl)cc3)CC2)cc1 [CBK091315] | 93.3 |
| COc1ccccc1C1OC(=O)CC1C(=O)N1CCN(c2ccc(Cl)cc2)CC1 (stereo not shown) [CBK091332] | 86.2 |
| CC(=O)N[C@H](Cc1c[nH]c2ccccc12)C(=O)N1CCN(c2ccc(C)cc2)CC1 [CBK091333] | 91.1 |
| CCC(C)(C)C(=O)Nc1ccc(Cl)nc1 [CBK091334] | 96.4 |
| O=C(Nc1ccc(Cl)nc1)C(F)(F)F [CBK091339] | 101 |
| Cc1ccccc1C(=O)NCC(=O)Nc1ccc(Br)c2ccccc12 [CBK091343] | 98 |
| O=C(CC1CCCCC1)Nc1ccc(Cl)nc1 [CBK091349] | 83.5 |

| Compound | viability at 28.5 h, 10 µM [%] |
| --- | --- |
| COC(C)(C(=O)Nc1ccc(Cl)nc1)c1cccc2ccccc12 (stereo not shown) [CBK091350] | 102 |
| Cc1ccc(S(=O)(=O)NCC(=O)Nc2ccc(Cl)nc2)cc1 [CBK091355] | 96.1 |
| COc1ccc(C(N)C2(O)CCN(Cc3ccccc3)CC2)cc1 (stereo not shown) [CBK091386] | 107 |
| COc1ccc(N2CCN(C(=O)CCC(=O)c3cccs3)CC2)cc1 [CBK091413] | 94.3 |
| CCCCC(CC)C(=O)N1CCN(c2ccc(OC)cc2)CC1 (stereo not shown) [CBK091414] | 99.9 |
| COc1ccc(N2CCN(C(=O)CCC(F)(F)F)CC2)cc1 [CBK091419] | 100 |
| CC(C)Nc1cncc(Sc2cccc(N)c2)n1 [CBK091434] | 108 |
| CC(C)Nc1cncc(Sc2ccccc2O)n1 [CBK091438] | 88 |
| COc1ccccc1N1CCN(C(=O)CCC(=O)c2cccs2)CC1 [CBK091498] | 109 |
| NC(=O)CN1CCCN(c2cc(OCCc3c[nH]c4ccccc34)ncn2)CC1 [CBK091546] | 96.6 |
| Clc1ccc(COc2ccnc(N3CCCNCC3)n2)cc1Cl [CBK091550] | 90 |
| O=C(c1ccccc1)c1ccc2[nH]nnc2c1 [CBK091608] | 94.2 |
| S=C(NCc1ccccc1)Nc1ccccc1 [CBK091617] | 105 |
| COc1ccc2[nH]c(SCC(=O)O)nc2c1 [CBK091620] | 91 |
| O=C1CC(c2cccs2)Sc2nc3ccccc3n21 (stereo not shown) [CBK091627] | 110 |
| COCCNC(=O)c1c(NC(=O)c2ccccc2C)sc2c1CCCC2 [CBK091645] | 83.9 |
| CC1=C(C(=O)OCC(C)C)C(c2ccc(C)cc2)N2C(=O)C(C)SC2=N1 (stereo not shown) [CBK091646] | 92.8 |
| CCCNc1nc(Cl)nc(NC(C)(C)C)n1 [CBK091674] | 86.3 |
| Cc1ccc(CNS(=O)(=O)N(C)C)cc1 [CBK091778] | 80.9 |
| O=C(c1cccc(C(=O)N(Cc2ccccc2)c2ccccn2)c1)N(Cc1ccccc1)c1ccccn1 [CBK091794] | 111 |
| CN(CC(=O)N1CCCCCC1)S(=O)(=O)c1cc(Cl)ccc1Cl [CBK091841] | 92.4 |

| Compound | viability at 28.5 h, 10 µM [%] |
| --- | --- |
| COc1ccc(-c2cc(=O)[nH]c(SCC(=O)Nc3ccc(C)cc3)n2)cc1 [CBK091867] | 95.8 |
| CSc1nc2sc3c(c2c(=O)n1-c1ccccc1C)CC(C)(C)OC3 [CBK091875] | 99.1 |
| NC(=O)C1(N2CCCCC2)CCN(C(=S)NC2CCCC2)CC1 [CBK091884] | 88.1 |
| CCOC(=O)C1=C(C)N(CC)C(=O)NC1c1cc(OC)c(OC)c(OC)c1 (stereo not shown) [CBK091912] | 98.3 |
| CCOc1ccccc1N1CCN(C(=O)c2cc(-c3ccccc3C)nc3ccccc23)CC1 [CBK091950] | 104 |
| O=C(NC(=S)Nc1ccc(Br)cc1)c1ccccc1 [CBK092022] | 83.5 |
| O=C(NC(=S)Nc1ccccc1)c1cncc(Br)c1 [CBK092040] | 91.2 |
| CCOc1cccc(C(=O)NC(=S)Nc2nc(C)c(C(=O)OC)s2)c1 [CBK092056] | 93.6 |
| O=C(Nc1ccccc1Br)C1CCCC1 [CBK092059] | 111 |
| Cc1cc(C)nc(SCC(=O)c2ccc(F)cc2)n1 [CBK092116] | 82.1 |
| O=c1c2ccccc2[nH]c(=S)n1CCCN1CCOCC1 [CBK092141] | 88.1 |
| c1ccc(OCCCCN2CCCC23CCc2[nH]c4ccccc4c2C3)cc1 (stereo not shown) [CBK092200T] | 89.8 |
| CN(C)CC(=O)N1CN(C(=O)c2cccc(Br)c2)C(C)(C)C1 [CBK092206C] | 97.4 |
| COc1cc(OC)nc(Oc2ccccc2C(=O)O)n1 [CBK092218] | 84.6 |
| COC(=O)c1cccc(Oc2nc(OC)cc(OC)n2)c1 [CBK092219] | 66.1 |
| COC(=O)c1ccc(Oc2nc(OC)cc(OC)n2)cc1 [CBK092221] | 113 |
| CC1(C)OC(NC2CC3CCC2C3)=NC1=O (stereo not shown) [CBK092237] | 82.8 |
| CC[C@H]1CCCCN1C(=O)c1sc2ncccc2c1Cl [CBK092276] | 104 |
| Cc1cnc2c(N3CCCC3)nc(-c3cccnc3)cn12 [CBK092277] | 98.5 |
| COc1nn(C)c(CO)c1Cc1c(Cl)cccc1Cl [CBK092285T] | 94.2 |
| COc1cc(-c2ccc3c(c2)COC2(CCCNC2)O3)cc(OC)c1OC (stereo not shown) [CBK092299] | 93 |

| Compound | viability at 28.5 h, 10 µM [%] |
| --- | --- |
| CCOC(=O)c1cnc(SC)nc1NCCc1c[nH]c2cc(F)ccc12 [CBK092315] | 96 |
| O=C(NCc1csc(-c2ccccc2)n1)c1ccccc1OC(F)F [CBK092332] | 95 |
| CC(=O)[C@H]1C[C@@H](CC(=O)NCc2csc(-c3ccccc3)n2)C1(C)C [CBK092335] | 109 |
| O=C(NCc1csc(-c2ccccc2)n1)C(F)(F)F [CBK092340] | 102 |
| O=C(CCC(F)(F)F)NCc1csc(-c2ccccc2)n1 [CBK092342] | 91 |
| O=C(NCc1csc(-c2ccccc2)n1)C1CC=CCC1 (stereo not shown) [CBK092348] | 94.4 |
| Cc1nc(-c2ccccc2)sc1CNC(=O)COc1ccc(F)cc1 [CBK092350] | 86.3 |
| Cc1nc(-c2ccccc2)sc1CNC(=O)c1ccc([N+](=O)[O-])o1 [CBK092352] | 54.8 |
| COc1ccc(CCCC(=O)NCc2sc(-c3ccccc3)nc2C)cc1OC [CBK092353] | 85.2 |
| COC(C(=O)NCc1sc(-c2ccccc2)nc1C)c1ccccc1 (stereo not shown) [CBK092362] | 93.1 |
| Cc1nc(-c2ccccc2)sc1CNC(=O)C(C)c1ccc([N+](=O)[O-])cc1 (stereo not shown) [CBK092364] | 98 |
| O=C1CSC2(C(=O)N(Cc3ccccc3)c3ccccc32)N1c1ccccc1 (stereo not shown) [CBK092391] | 100 |
| O=C1CSC2(C(=O)N(Cc3cccc(C(F)(F)F)c3)c3ccccc32)N1c1ccccc1 (stereo not shown) [CBK092392] | 108 |
| COc1ccc(N2C(=O)CSC23C(=O)N(Cc2ccc(Cl)cc2)c2ccccc23)cc1 (stereo not shown) [CBK092396] | 91.6 |
| COC(=O)c1ccc(CNc2nc(OC)cc(OC)n2)cc1 [CBK093391] | 95 |
| Nc1nn2c(c1Cc1c(Cl)cccc1Cl)OC(=O)CCC2=O [CBK093439] | 113 |
| COc1ccc(C(=O)N(CCC(C)C)Cc2nc(C)c(C)n2Cc2ccccc2Cl)c(OC)c1 [CBK093441] | 86.2 |
| Cc1ccc(N2C(=O)CSC23C(=O)Nc2ccc(Br)cc23)cc1 (stereo not shown) [CBK093453] | 84.4 |
| O=C1CSC2(C(=O)Nc3ccccc32)N1c1ccc2ccccc2c1 (stereo not shown) [CBK093461] | 106 |

Same assay, conditions: human, hela cells, % viability, bulk resorufin, single well

| Compound | viability at 28.5 h, 10 µM [%] |
| --- | --- |
| COc1ccccc1C1OC(=O)CC1C(=O)N1CCC(C(C)=O)(c2ccccc2)CC1 (stereo not shown) [CBK091324] | 104 |
| CC(=O)C1(c2ccccc2)CCN(C(=O)CNS(=O)(=O)c2ccc(C)cc2)CC1 [CBK091328] | 92.5 |
| N#CC1(c2ccccc2)CCN(C(=O)c2ccc([N+](=O)[O-])o2)CC1 [CBK091389] | 95.7 |
| CC(=O)[C@H]1C[C@@H](CC(=O)N2CCC(C#N)(c3ccccc3)CC2)C1(C)C [CBK091393] | 91.5 |
| N#CC1(c2ccccc2)CCN(C(=O)CCC(F)(F)F)CC1 [CBK091399] | 97.7 |
| CC(C)(C)OC(=O)NCCCCC(=O)N1CCC(C#N)(c2ccccc2)CC1 [CBK091401] | 89.4 |
| CC1CC1C(=O)N1CCC(C#N)(c2ccccc2)CC1 (stereo not shown) [CBK091402] | 99 |
| COc1ccc(-c2ccc3c(c2)OC2(CCNCC2)O3)c(OC)c1 [CBK091451] | 93.2 |
| COc1cc(C(=O)Nc2ccc3c(c2)COC2(CCNCC2)O3)cc(OC)c1OC [CBK091531T] | 92.3 |
